4 molecules from PubChem BioAssay (NCI) can be followed below.

Several values for one entry are separate records, joined by “and”; a condition that tells them apart may be missing. Identical values can stand only once.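 Following 48 hours of exposure in 96-well plates, responses at five concentrations were used to interpolate endpoints linearly. Definition used: TGI = concentration required for complete inhibition of growth.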

The first experiment deals with DMS 114 small cell lung. Description: inhibition of tumour cell growth, NCI panel, 48 h.
For `O=C(NC12CC3CC(CC(C3)C1)C2)C(=O)c1c[nH]c2ccc(Cl)cc12`, the TGI is over 100 µM.

For another experiment, the system named is PC-3 prostate. Kind of experiment: inhibition of tumour cell growth, NCI panel, 48 h.
In turn, `CC[C@H]1CN2CCc3cc(OC)c(OC)cc3[C@@H]2C[C@@H]1C[C@H]1NCCc2cc(OC)c(OC)cc21` came in with a TGI of 0.103 µM.

A further experiment relates to HL-60(TB) leukemia. Kind of experiment: inhibition of tumour cell growth, NCI panel, 48 h.
Molecule `CC(C(=O)n1nnc2ccccc21)N(c1ccccc1)c1ccccc1` (stereo not drawn) gave a TGI of over 100 µM.

Turning to `O=C1C=CC(=O)N1Nc1ccc([N+](=O)[O-])cc1[N+](=O)[O-]`, the TGI was over 51.5 µM.

On to `O=C(NC12CC3CC(CC(C3)C1)C2)C(=O)c1c[nH]c2ccc(Cl)cc12`, for which the TGI is over 100 µM.

For a further experiment, the system named is A549 NSCLC. Description: inhibition of tumour cell growth, NCI panel, 48 h.
As to `CC(C(=O)n1nnc2ccccc21)N(c1ccccc1)c1ccccc1` (stereo not drawn), the TGI is over 100 µM.

On to `O=C1C=CC(=O)N1Nc1ccc([N+](=O)[O-])cc1[N+](=O)[O-]`, for which the TGI is over 100 µM.

The molecule `O=C(NC12CC3CC(CC(C3)C1)C2)C(=O)c1c[nH]c2ccc(Cl)cc12` gave a TGI of over 100 µM.

In another experiment the test system is SF-268 CNS. Description: inhibition of tumour cell growth, NCI panel, 48 h.
`CC(C(=O)n1nnc2ccccc21)N(c1ccccc1)c1ccccc1` (stereo not drawn) had a TGI of over 100 µM.

In turn, `O=C1C=CC(=O)N1Nc1ccc([N+](=O)[O-])cc1[N+](=O)[O-]` registered a TGI of over 100 µM.

On to `O=C(NC12CC3CC(CC(C3)C1)C2)C(=O)c1c[nH]c2ccc(Cl)cc12`, for which the TGI is over 100 µM.

The next experiment has as its system UACC-257 melanoma. Kind of experiment: inhibition of tumour cell growth, NCI panel, 48 h.
`CC(C(=O)n1nnc2ccccc21)N(c1ccccc1)c1ccccc1` (stereo not drawn) displayed a TGI of over 100 µM.

For `CC[C@H]1CN2CCc3cc(OC)c(OC)cc3[C@@H]2C[C@@H]1C[C@H]1NCCc2cc(OC)c(OC)cc21`, the TGI is 0.361 µM and 0.529 µM.

Turning to `O=C1C=CC(=O)N1Nc1ccc([N+](=O)[O-])cc1[N+](=O)[O-]`, the TGI is over 100 µM.

In turn, `O=C(NC12CC3CC(CC(C3)C1)C2)C(=O)c1c[nH]c2ccc(Cl)cc12` yielded a TGI of over 100 µM.

A further experiment deals with M19-MEL melanoma. Description: inhibition of tumour cell growth, NCI panel, 48 h.
`CC(C(=O)n1nnc2ccccc21)N(c1ccccc1)c1ccccc1` (stereo not drawn) yielded a TGI of over 100 µM.

Regarding `CC[C@H]1CN2CCc3cc(OC)c(OC)cc3[C@@H]2C[C@@H]1C[C@H]1NCCc2cc(OC)c(OC)cc21`, the TGI is 0.0824 µM and 0.147 µM.

`O=C1C=CC(=O)N1Nc1ccc([N+](=O)[O-])cc1[N+](=O)[O-]` displayed a TGI of over 100 µM.

For `O=C(NC12CC3CC(CC(C3)C1)C2)C(=O)c1c[nH]c2ccc(Cl)cc12`, the TGI was over 100 µM.

The next experiment concerns SF-295 CNS. Kind of experiment: inhibition of tumour cell growth, NCI panel, 48 h.
Take `CC(C(=O)n1nnc2ccccc21)N(c1ccccc1)c1ccccc1` (stereo not drawn): the TGI is over 100 µM.

The molecule `O=C1C=CC(=O)N1Nc1ccc([N+](=O)[O-])cc1[N+](=O)[O-]` came in with a TGI of over 100 µM.

In the case of `O=C(NC12CC3CC(CC(C3)C1)C2)C(=O)c1c[nH]c2ccc(Cl)cc12`, the TGI is 65.2 µM.

The subject of the next experiment is UACC-62 melanoma. Kind of experiment: inhibition of tumour cell growth, NCI panel, 48 h.
For the molecule `CC(C(=O)n1nnc2ccccc21)N(c1ccccc1)c1ccccc1` (stereo not drawn), the TGI was over 100 µM.

As for `CC[C@H]1CN2CCc3cc(OC)c(OC)cc3[C@@H]2C[C@@H]1C[C@H]1NCCc2cc(OC)c(OC)cc21`, the TGI is 0.206 µM and 0.0957 µM.

As for `O=C1C=CC(=O)N1Nc1ccc([N+](=O)[O-])cc1[N+](=O)[O-]`, the TGI was over 100 µM.

`O=C(NC12CC3CC(CC(C3)C1)C2)C(=O)c1c[nH]c2ccc(Cl)cc12` had a TGI of over 100 µM.

The subject of another experiment is SK-MEL-2 melanoma. Kind of experiment: inhibition of tumour cell growth, NCI panel, 48 h.
Consider `CC(C(=O)n1nnc2ccccc21)N(c1ccccc1)c1ccccc1` (stereo not drawn), for which the TGI was over 100 µM.

For `CC[C@H]1CN2CCc3cc(OC)c(OC)cc3[C@@H]2C[C@@H]1C[C@H]1NCCc2cc(OC)c(OC)cc21`, the TGI was 0.111 µM and 0.17 µM.

`O=C1C=CC(=O)N1Nc1ccc([N+](=O)[O-])cc1[N+](=O)[O-]` showed a TGI of over 100 µM.

`O=C(NC12CC3CC(CC(C3)C1)C2)C(=O)c1c[nH]c2ccc(Cl)cc12` returned a TGI of 89.4 µM.

In another experiment the test system is MOLT-4 leukemia. Description: inhibition of tumour cell growth, NCI panel, 48 h.
Regarding `CC(C(=O)n1nnc2ccccc21)N(c1ccccc1)c1ccccc1` (stereo not drawn), the TGI is over 100 µM.

On to `O=C1C=CC(=O)N1Nc1ccc([N+](=O)[O-])cc1[N+](=O)[O-]`, for which the TGI is over 75.2 µM.

In turn, `O=C(NC12CC3CC(CC(C3)C1)C2)C(=O)c1c[nH]c2ccc(Cl)cc12` gave a TGI of over 100 µM.

For the next experiment, the system named is IGROV1 ovarian. Description: inhibition of tumour cell growth, NCI panel, 48 h.
The molecule `CC(C(=O)n1nnc2ccccc21)N(c1ccccc1)c1ccccc1` (stereo not drawn) returned a TGI of over 100 µM.

As to `CC[C@H]1CN2CCc3cc(OC)c(OC)cc3[C@@H]2C[C@@H]1C[C@H]1NCCc2cc(OC)c(OC)cc21`, the TGI is 0.0935 µM and 0.277 µM.

For the molecule `O=C1C=CC(=O)N1Nc1ccc([N+](=O)[O-])cc1[N+](=O)[O-]`, the TGI is over 100 µM.

On to `O=C(NC12CC3CC(CC(C3)C1)C2)C(=O)c1c[nH]c2ccc(Cl)cc12`, for which the TGI was over 100 µM.

The next experiment deals with DU-145 prostate. Description: inhibition of tumour cell growth, NCI panel, 48 h.
On to `CC[C@H]1CN2CCc3cc(OC)c(OC)cc3[C@@H]2C[C@@H]1C[C@H]1NCCc2cc(OC)c(OC)cc21`, for which the TGI worked out at 0.0643 µM.

The test system of a further experiment is HOP-18 NSCLC. Description: inhibition of tumour cell growth, NCI panel, 48 h.
With `CC[C@H]1CN2CCc3cc(OC)c(OC)cc3[C@@H]2C[C@@H]1C[C@H]1NCCc2cc(OC)c(OC)cc21`, the TGI was found to be 0.403 µM.

A further experiment has as its system UO-31 renal. Kind of experiment: inhibition of tumour cell growth, NCI panel, 48 h.
Consider `CC(C(=O)n1nnc2ccccc21)N(c1ccccc1)c1ccccc1` (stereo not drawn), for which the TGI was over 100 µM.

Regarding `CC[C@H]1CN2CCc3cc(OC)c(OC)cc3[C@@H]2C[C@@H]1C[C@H]1NCCc2cc(OC)c(OC)cc21`, the TGI is 0.242 µM and 0.978 µM.

`O=C1C=CC(=O)N1Nc1ccc([N+](=O)[O-])cc1[N+](=O)[O-]` registered a TGI of over 100 µM.

The molecule `O=C(NC12CC3CC(CC(C3)C1)C2)C(=O)c1c[nH]c2ccc(Cl)cc12` came in with a TGI of over 100 µM.

In another experiment the test system is NCI-H460 lung. Kind of experiment: inhibition of tumour cell growth, NCI panel, 48 h.
In turn, `CC(C(=O)n1nnc2ccccc21)N(c1ccccc1)c1ccccc1` (stereo not drawn) registered a TGI of over 100 µM.

On to `CC[C@H]1CN2CCc3cc(OC)c(OC)cc3[C@@H]2C[C@@H]1C[C@H]1NCCc2cc(OC)c(OC)cc21`, for which the TGI is 0.0713 µM and 0.03 µM.

Consider `O=C1C=CC(=O)N1Nc1ccc([N+](=O)[O-])cc1[N+](=O)[O-]`, for which the TGI is over 100 µM.

Take `O=C(NC12CC3CC(CC(C3)C1)C2)C(=O)c1c[nH]c2ccc(Cl)cc12`: the TGI is over 100 µM.

For a further experiment, the system named is DMS 273 small cell lung. Description: inhibition of tumour cell growth, NCI panel, 48 h.
`CC(C(=O)n1nnc2ccccc21)N(c1ccccc1)c1ccccc1` (stereo not drawn) yielded a TGI of over 100 µM.

Turning to `CC[C@H]1CN2CCc3cc(OC)c(OC)cc3[C@@H]2C[C@@H]1C[C@H]1NCCc2cc(OC)c(OC)cc21`, the TGI was 0.18 µM and 0.0463 µM.

`O=C1C=CC(=O)N1Nc1ccc([N+](=O)[O-])cc1[N+](=O)[O-]` displayed a TGI of over 100 µM.

`O=C(NC12CC3CC(CC(C3)C1)C2)C(=O)c1c[nH]c2ccc(Cl)cc12` registered a TGI of over 100 µM.

The next experiment deals with BT-549 breast. Description: inhibition of tumour cell growth, NCI panel, 48 h.
Consider `CC[C@H]1CN2CCc3cc(OC)c(OC)cc3[C@@H]2C[C@@H]1C[C@H]1NCCc2cc(OC)c(OC)cc21`, for which the TGI amounted to 0.658 µM.

In the next experiment the test system is OVCAR-5 ovarian. Description: inhibition of tumour cell growth, NCI panel, 48 h.
`CC(C(=O)n1nnc2ccccc21)N(c1ccccc1)c1ccccc1` (stereo not drawn) gave a TGI of over 100 µM.
